The text below walks through data of patent publication US20200405752A1, “ANTITUMOR AGENT, ANTITUMOR EFFECT ENHANCER, AND ANTITUMOR KIT” (FUJIFILM Corporation, priority 2018, published 2020).

Where only a bound is given, the exact number is not on record here.

The subject of this experiment is human ovarian cancer cell line ES-2. The experiment is described as follows: Cell viability (CellTiter Glo) of ES-2 in combination with cisplatin or carboplatin. The format is cell-based. Conditions: for CI: ES-2 Cell; for viability at 0.001 µM / viability at 0.003 µM / viability at 0.01 µM / viability at 0.03 µM / viability at 0.1 µM / viability at 0.3 µM / viability at 1 µM / viability at 3 µM / viability at 10 µM / IC50: Homo sapiens; for viability at 0.001 µM / viability at 0.003 µM / viability at 0.01 µM / viability at 0.03 µM / viability at 0.1 µM / viability at 0.3 µM / viability at 1 µM / viability at 3 µM / viability at 10 µM: 72 h, 3 days; for viability at 0.001 µM: test substance 1 nM; for viability at 0.003 µM: test substance 3 nM; for viability at 0.01 µM: test substance 10 nM; for viability at 0.03 µM: test substance 30 nM; for viability at 0.1 µM: test substance 100 nM; for viability at 0.3 µM: test substance 300 nM; for viability at 1 µM: test substance 1000 nM; for viability at 3 µM: test substance 3000 nM; for viability at 10 µM: test substance 10000 nM. The text has this: On the combinational effect of the embodiment of the invention, the results of evaluation using a combination index (CI) which is a quantitative index of the combinational effect are shown. The CI can be calculated by the following equation according to Cancer Research, 2010, Vol. 70, pp. 440 to 446.
That is, in a case where the drugs to be used in combination are drug 1 and drug 2, the CI at a certain drug concentration is
CI={(cell viability in case of using drug 1 and drug 2 in combination)/100}/{[(cell viability in case of using drug 1)/100]×[(cell viability in case of using drug 2)/100]}
Evaluation of antitumor activity against human ovarian cancer cell lines ES-2 and SK-OV-3 in combination with cisplatin and carboplatin
Furthermore, the antitumor activity against human ovarian cancer-derived cell lines ES-2 and SK-OV-3 in combination with cisplatin and carboplatin was evaluated in the same manner as in Test Example 1.
Gemcitabine, cisplatin, carboplatin, and methanesulfonate of Compound A were used as test substances.
Gemcitabine hydrochloride (manufactured by Plantex Co., Ltd.) dissolved in DMSO was used as gemcitabine. Cisplatin (Cat. #039-20091, manufactured by Wako Pure Chemical Industries, Ltd.) and carboplatin (Cat. #C2043, manufactured by Tokyo Chemical Industry Co., Ltd.), each of which dissolved in McCoy's 5a medium (Cat. #16600-082, manufactured by Thermo Fisher Scientific Inc.) supplemented with 1% serum (Cat. #10437-028, manufactured by Thermo Fisher Scientific Inc.), were used as cisplatin and carboplatin, respectively.
Human ovarian cancer cell line ES-2 and SK-OV-3 cells were subcultured in 10% serum-supplemented medium. During this test, all cell cultures were carried out in a CO2 incubator (set to 37° C. and 5% CO2, saturated with water vapor). ES-2 cells were diluted with 10% serum-supplemented medium to a cell density of 10000 cells/well/100 μL and SK-OV-3 cells were diluted with 10% serum-supplemented medium to a cell density of 15000 cells/well/100 μL, and then seeded on a 96-well plate. On the next day, the culture supernatant of each well was discarded, followed by washing twice with 150 μL of 1% serum-supplemented medium, and 100 μL of 1% serum-supplemented medium was added thereto, followed by culturing for 3 days.
The methanesulfonate of Compound A and gemcitabine were dissolved in DMSO to prepare 100 mmol/L DMSO solutions thereof. The thus-prepared DMSO solutions were diluted sequentially with DMSO to prepare DMSO solutions having a final treatment concentration of 1000-fold dilution. Cisplatin and carboplatin were dissolved in 1% serum-supplemented medium to prepare a cisplatin solution 60 μmol/L and a carboplatin solution 600 μmol/L, respectively. The DMSO diluted solutions of Compound A and gemcitabine were diluted with the cisplatin solution (60 μmol/L) or the Carboplatin solution (600 μmol/L) to prepare treatment liquids having a final treatment concentration of 6-fold dilution. Compound A and gemcitabine were used with a maximum concentration of 10 μmol/L at a common ratio of 1/3 and 9 concentrations in combination with cisplatin or Carboplatin.
20 μL of Compound A or gemcitabine diluted with the cisplatin solution (60 μmol/L) or the Carboplatin solution (600 μmol/L) was added to each well. In addition, a group in which only a solvent containing no drug was added to wells in which cells were seeded (positive control), and a group in which only a solvent containing no drug was added to wells containing only a medium (negative control) were provided. All groups were set to n=3 well.
The cells were cultured for 3 days after the addition of the drug, and the cell viability was evaluated using a CellTiter Glo (registered trademark) Reagent (Cat. #G7570, manufactured by Promega Corporation) with the intracellular ATP level as an index. […]
On the technique in general: ATP-based viability assays read luminescence as a measure of living cells.

Where [1] appears, read: ES-2, used in combination with cisplatin (10 μmol/L, Table 3).
[2] abbreviates: ES-2, with carboplatin 100 μmol/L.
Setting [3] is: ES-2, used in combination with carboplatin (100 μmol/L, Table 6).

One may read the viability as a read-out of living cells in per cent, often relative to untreated cells. For orientation: IC50 means the concentration that gives 50% inhibition. For the molecule `Nc1ccn([C@@H]2O[C@H](CO)[C@@H](O)C2(F)F)c(=O)n1` [Gemcitabine], the IC50 value entry under setting [1] was “could not be calculated”. Besides, for the setting “combination with Carboplatin”, the CI is 0.9. Further, for the setting “combination with Cisplatin”, the CI came to 1.1. Under setting [2], the viability at 0.001 µM turned out to be 76%, the viability at 0.003 µM turned out to be 74%, the viability at 0.01 µM was 71% and the viability at 0.03 µM was determined as 71%. Further, under setting [2], the viability at 0.1 µM came out at 72%, the viability at 0.3 µM turned out to be 71%, the viability at 1 µM turned out to be 69% and the viability at 3 µM amounted to 62%. Moreover, the viability at 10 µM under setting [2] came to 48%. In addition, where the note is “ES-2, with cisplatin 10 μmol/L”, the viability at 0.001 µM turned out to be 74%, the viability at 0.003 µM was found to be 78%, the viability at 0.01 µM came out at 78% and the viability at 0.03 µM stood at 79%. Also, under “ES-2, with cisplatin 10 μmol/L”, the viability at 0.1 µM was determined as 79%, the viability at 0.3 µM was 79%, the viability at 1 µM turned out to be 74% and the viability at 3 µM worked out at 65%. Also, under “ES-2, with cisplatin 10 μmol/L”, the viability at 10 µM worked out at 50%. In addition, under setting [3], the IC50 is at least 10000 nM.
With `Nc1ccn([C@@H]2S[C@H](CO)[C@@H](O)[C@@H]2F)c(=O)n1` [Compound A, 1-(2-deoxy-2-fluoro-4-thio-β-D-arabinofuranosyl)cytosine], the CI (combination with Carboplatin) is given as 0.4. Moreover, the CI (combination with Cisplatin) is recorded as 0.3. For the same molecule, under setting [2], the viability at 0.001 µM was determined as 73%, the viability at 0.003 µM worked out at 70%, the viability at 0.01 µM turned out to be 69% and the viability at 0.03 µM worked out at 57%. Also, under setting [2], the viability at 0.1 µM is 36%, the viability at 0.3 µM came out at 28%, the viability at 1 µM came to 24% and the viability at 3 µM amounted to 22%. Further, under setting [2], the viability at 10 µM stood at 21%. Where the note is “ES-2, with cisplatin 10 μmol/L”, the viability at 0.001 µM was 78%, the viability at 0.003 µM was 78%, the viability at 0.01 µM is 77% and the viability at 0.03 µM amounted to 68%. For the setting “ES-2, with cisplatin 10 μmol/L”, the viability at 0.1 µM was determined as 37%, the viability at 0.3 µM turned out to be 26%, the viability at 1 µM turned out to be 23% and the viability at 3 µM is 23%. Also, for the setting “ES-2, with cisplatin 10 μmol/L”, the viability at 10 µM was found to be 21%. Further, under setting [3], the IC50 was found to be 46 nM. In addition, under setting [1], the IC50 came to 63.2 nM.
